The text below walks through data of patent publication US9176124B2, “Method for measurement of equol in biological sample by immunoassay, kit for the measurement, and method for determination of equol production ability of subject” (OTSUKA PHARMACEUTICAL CO., LTD., priority 2009, dated 2015).

SMILES strings stand for the structures.

Test [1] relates to anti-equol rabbit antiserum (primary antibody). The experiment in a line: Cross-reactivity of the primary antibody by competitive ELISA (Test Example 2). It counts as binding. The settings on record: (IC20 of S-equol/IC20 of each isoflavone, etc.)×100, S-equol assumed 100%, horseradish peroxidase-labeled S-equol as labeled antigen, samples in 100% charcoal-treated human serum. An excerpt:
The above cross-reactivity can be explained as follows. Specifically, the above cross-reactivity indicates a ratio (%) of the concentration (IC20) of unlabeled S-equol at which the binding reaction of labeled S-equol to the anti-equol antibody can be inhibited by 20%, to the concentration (IC20) of each isoflavone and the like at which the binding reaction of labeled S-equol to the anti-equol antibody can be inhibited by 20%. More specifically, in the competitive reaction between labeled S-equol and unlabeled S-equol, the concentration of unlabeled S-equol at which the binding of labeled S-equol to the antibody is 80 is determined, assuming that the binding of labeled S-equol alone to the antibody is 100. Similarly, each unlabeled isoflavone and the like are competitively reacted with labeled S-equol, and the concentration of each isoflavone and the like at which binding of labeled S-equol to the antibody is 80 is determined.
The thus-determined ratio (expressed in percentage) between the concentration (IC20) of the unlabeled S-equol and the concentration (IC20) of each isoflavone and the like is referred to as the cross-reactivity. This is represented by the following formula: Cross-reactivity (%)=(IC20 of S-equol/IC20 of each isoflavone, etc.)×100
Herein, the cross-reactivity rate is determined by competitive ELISA, using S-equol as the standard antigen used for the preparation of a standard curve, as well as the labeled antigen that competes with equol in a biological sample.
In this Test Example, the cross-reactivity of the primary antibody was examined for the case where competitive ELISA was employed and S-equol was used as both the standard antigen and the labeled antigen. Specifically, the cross-reactivity was examined as follows.
Each of the isoflavones and the like shown in the later-described Table 4 was dissolved in 100% charcoal-treated human serum, and the resulting solution was used as a sample.
An anti-equol rabbit antiserum was used as the primary antibody, as in Example 1. The antiserum was suitably diluted with the later-described antiserum dilution buffer, and used in the test.
A goat anti-rabbit IgG antibody was used as a secondary antibody, as in Example 1. The antibody was immobilized to a solid phase as in Example 1, thus preparing a plate containing immobilized goat anti-rabbit IgG antibody.
Horseradish peroxidase-labeled S-equol was used as a labeled antigen, as in Example 1.
S-equol was used as a standard antigen, as in Example 1. Note that a standard equol solution in the forth of a mixed solution of S-equol (0, 30, 90, 270, or 810 ng/mL) and 100% charcoal-treated human serum was used.
A concentration dilution series was prepared for each of the isoflavones and the like, and for unlabeled S-equol. The adsorption by each of the isoflavones and the like, and the adsorption by unlabeled S-equol in the competitive reaction were measured from when the concentrations of these substances were 0 to when the concentrations of these substances were added in excess amounts. Each of the thus-obtained measured values was checked against a standard curve obtained from the dilution series of the standard antigen (S-equol), so as to compare the inhibition of the reaction based on each calculated value. Thereby, the concentration (IC20) of each of the isoflavones and the like, as well as the concentration (IC20) of unlabeled S-equol, at which the binding reaction of labeled S-equol to the anti-equol antibody is inhibited by 20%, were determined.
The competitive reaction was performed using competitive ELISA by a procedure similar to that in Example 1. Further, horseradish peroxidase was used as a labeling substance.
The ratio (expressed in percentage) of the thus-obtained concentration of each of the isoflavones and the like to the thus-obtained concentration of unlabeled S-equol was regarded as the cross-reactivity. […]

The next test concerns monoclonal antibody. As to conditions: Clinical Chemistry 53: 748-756, 2007; cited from earlier work.
The test system of test [2] is Labmaster Equol TR-FIA. As to conditions: heretofore known kit; cited from earlier work.
Test [3] deals with Labmaster Equol TR-FIA. The test can be described thus: Cross-reactivity of the known kit Labmaster Equol TR-FIA. It counts as binding. The settings on record: with daidzein. The source says: Further, for example, when Labmaster Equol TR-FIA, which is a heretofore known kit manufactured by Labmaster, is used, the cross-reactivity rate with daidzein is 0.8% (see labmaster.fi/products/tr-fia-kitS-equol-tr-fia.htm), and the cross-reactivity of the kit is 10 times as high as that of the present kit.

For the molecule `O=c1c(-c2ccc(O)cc2)coc2cc(O)cc(O)c12` [Genistein], the “Cross-reactivity Rate” value in test [1] amounted to 0.05%.

As for `O=c1c(-c2ccc(O)cc2)coc2cc(O[C@@H]3O[C@H](CO)[C@@H](O)[C@H](O)[C@H]3O)ccc12` [Daidzin], the “Cross-reactivity Rate” value in test [1] and in test [1] (listed as daidzin) was 0.06% each time.

For `O=c1c(-c2ccc(O)cc2)coc2cc(O)ccc12` [Daidzein], the Cross-reactivity Rate in the test with monoclonal antibody is given as less than 0.04%; in test [1], 0.08%; in test [1] (listed as daidzein), 0.08%; in the test with Labmaster Equol TR-FIA [2], 0.8%. The “cross-reactivity of the Labmaster kit relative to the present kit” value in the test on Labmaster Equol TR-FIA [3] turned out to be 10 times. Take `COc1cc2c(=O)c(-c3ccc(O)cc3)coc2cc1O` [Glycitein]: the “Cross-reactivity Rate” value in test [1] was 0.03%. As for `O=C1c2ccc(O)cc2OCC1c1ccc(O)cc1` (centres unmarked) [Dihydrodaizein], the entries for the “Cross-reactivity Rate” value (in test [1]; in test [1] (listed as dihydrodaidzein); in the test with Labmaster Equol TR-FIA [2]) were 1.03%, 1.03% and 4.0%, respectively. Regarding `O=c1cc(-c2ccc(O)c(O)c2)oc2cc(O)cc(O)c12` [Luteolin], in test [1], the “Cross-reactivity Rate” value is given as 0.00%.

For the molecule `O=c1c(-c2ccc(O)cc2)coc2cc(O[C@@H]3O[C@H](CO)[C@@H](O)[C@H](O)[C@H]3O)cc(O)c12` [Genistin], in test [1], the “Cross-reactivity Rate” value is 0.06%. Still for that read-out and setting: then `Oc1ccc([C@H]2COc3cc(O)ccc3C2)cc1` [S-Equol], with 100.00%; and `COc1ccc(-c2coc3cc(O)cc(O)c3c2=O)cc1` [Biochanin A], with 0.11%.

`Oc1ccc(C2=Cc3ccc(O)cc3OC2)cc1` [Dehydroequol]: the “Cross-reactivity Rate” value in test [1] was 0.33%; in test [1] (listed as dehydroequol), 0.33%; with Labmaster Equol TR-FIA [2], 42.3%. Regarding `COc1cc2c(=O)c(-c3ccc(O)cc3)coc2cc1O[C@@H]1O[C@H](CO)[C@@H](O)[C@H](O)[C@H]1O` [Glycitin], the “Cross-reactivity Rate” value in test [1] is 0.02%. As to `Oc1ccc([C@@H]2COc3cc(O)ccc3C2)cc1` [R-Equol], the “Cross-reactivity Rate” value in test [1] and in test [1] (listed as R-equol) was 13.24% each time. On to `O=c1cc(-c2ccc(O)cc2)oc2cc(O)cc(O)c12` [Apigenin], for which the “Cross-reactivity Rate” value in test [1] is recorded as 0.00%.
